Experimental data from the CheMixHub ionic liquid set.

Assay: xn = mol fraction of the nth substance listed
Conditions: 298.15 K, 101 kPa

OC1OC[C@@H](O)[C@H](O)[C@H]1O (stereo partly specified) + O + CCCCCCCCCC[n+]1ccn(C)c1.[Br-]
Conditions | viscosity [mPa·s]
x1 = 0.0001909, x3 = 0.001813 | 0.998
x1 = 0.0001999, x3 = 0.003572 | 1.112
x1 = 0.0002133, x3 = 0.005429 | 1.247
x1 = 0.0002286, x3 = 0.007128 | 1.391
x1 = 0.0003836, x3 = 0.001812 | 1.001
x1 = 0.0003893, x3 = 0.005428 | 1.254
x1 = 0.0003978, x3 = 0.003572 | 1.116
x1 = 0.000437, x3 = 0.007127 | 1.398
x1 = 0.0005688, x3 = 0.001812 | 1.005
x1 = 0.0005861, x3 = 0.003571 | 1.123
x1 = 0.0005867, x3 = 0.005427 | 1.262
x1 = 0.0006133, x3 = 0.007125 | 1.404
x1 = 0.0007539, x3 = 0.001812 | 1.012
x1 = 0.0007591, x3 = 0.00357 | 1.129
x1 = 0.0007841, x3 = 0.005426 | 1.269
x1 = 0.0008175, x3 = 0.007124 | 1.409
x1 = 0.0009408, x3 = 0.001811 | 1.018
x1 = 0.0009549, x3 = 0.00357 | 1.133
x1 = 0.0009897, x3 = 0.007123 | 1.418
x1 = 0.000999, x3 = 0.005425 | 1.276
x1 = 0.001114, x3 = 0.003569 | 1.136
x1 = 0.001117, x3 = 0.001811 | 1.021
x1 = 0.001181, x3 = 0.005424 | 1.28
x1 = 0.001198, x3 = 0.007121 | 1.427
x1 = 0.00132, x3 = 0.001811 | 1.023
x1 = 0.001321, x3 = 0.003568 | 1.143
x1 = 0.00137, x3 = 0.005423 | 1.286
x1 = 0.001406, x3 = 0.00712 | 1.433
x1 = 0.00149, x3 = 0.00181 | 1.03
x1 = 0.001525, x3 = 0.003568 | 1.149
x1 = 0.001559, x3 = 0.005422 | 1.292
x1 = 0.001622, x3 = 0.007118 | 1.441
x1 = 0.001679, x3 = 0.00181 | 1.037
x1 = 0.001728, x3 = 0.003567 | 1.158
x1 = 0.001768, x3 = 0.005421 | 1.3
x1 = 0.001812, x3 = 0.007117 | 1.449

OC1OC[C@@H](O)[C@H](O)[C@H]1O (stereo partly specified) + O + CCCCCCCCn1cc[n+](C)c1.[Br-]
Conditions | viscosity [mPa·s]
x1 = 0.0001923, x3 = 0.001831 | 0.966
x1 = 0.0001932, x3 = 0.003598 | 1.027
x1 = 0.0002045, x3 = 0.00713 | 1.178
x1 = 0.0002136, x3 = 0.005442 | 1.104
x1 = 0.0003697, x3 = 0.00183 | 0.97
x1 = 0.0003826, x3 = 0.003597 | 1.03
x1 = 0.0004154, x3 = 0.005441 | 1.11
x1 = 0.00056, x3 = 0.00183 | 0.976
x1 = 0.0005832, x3 = 0.003596 | 1.035
x1 = 0.000592, x3 = 0.00544 | 1.115
x1 = 0.0006052, x3 = 0.007127 | 1.189
x1 = 0.0007465, x3 = 0.00183 | 0.981
x1 = 0.0007705, x3 = 0.003595 | 1.04
x1 = 0.0007917, x3 = 0.005439 | 1.121
x1 = 0.0008153, x3 = 0.007126 | 1.195
x1 = 0.0009407, x3 = 0.003595 | 1.044
x1 = 0.0009495, x3 = 0.001829 | 0.985
x1 = 0.0009701, x3 = 0.005438 | 1.127
x1 = 0.0009957, x3 = 0.007124 | 1.202
x1 = 0.001112, x3 = 0.001829 | 0.989
x1 = 0.001145, x3 = 0.003594 | 1.051
x1 = 0.00115, x3 = 0.005437 | 1.13
x1 = 0.001216, x3 = 0.007123 | 1.207
x1 = 0.001289, x3 = 0.001829 | 0.993
x1 = 0.001332, x3 = 0.003593 | 1.054
x1 = 0.00134, x3 = 0.005436 | 1.135
x1 = 0.00141, x3 = 0.007121 | 1.213
x1 = 0.001459, x3 = 0.001828 | 0.996
x1 = 0.00151, x3 = 0.003593 | 1.059
x1 = 0.00153, x3 = 0.005435 | 1.14
x1 = 0.001602, x3 = 0.00712 | 1.219
x1 = 0.001647, x3 = 0.001828 | 1
x1 = 0.001708, x3 = 0.003592 | 1.065
x1 = 0.001741, x3 = 0.005433 | 1.147
x1 = 0.001813, x3 = 0.007119 | 1.224
